Test system: TNF-alpha induced hypothermia
Assay: acute hypothermia mouse model (TNF-alpha/zVAD-FMK induced hypothermia)
Assay type: in vivo, mice
Settings: dose of 5 mg/kg, oral gavage
Method: In this example, an acute hypothermia mouse model assay was used to evaluate the ability of compounds disclosed herein to inhibit TNF-alpha induced hypothermia.
Female C57BL/6 mice are randomly grouped and weighed on Day −1. On the day of the study (Day 0), mice are administered vehicle or test article by oral gavage. Fifteen minutes after oral administration of test agents, each mouse is administered an intraperitoneal (IP) injection of solution containing recombinant human tumor necrosis factor alpha (TNF-a, 25.0 μg) and zVAD-FMK (200 μg). Body temperature is measured at 0 hours (before IP injections) and every hour via rectal probe temperature measuring device. Three (3) hours after IP injections of TNF-α and zVAD/FMK, mice are euthanized by CO2 asphyxiation and blood is collected via cardiac puncture. Serum and plasma are harvested for determination of cytokine and compound levels, respectively. Separate groups of mice (satellite mice) are included for the determination of compound levels in plasma at the time of administration of TNFa/zVAD-FMK.
(S)-5-benzyl-N-(5-methyl-4-oxo-2,3,4,5-tetrahydrobenzo[b][1,4]oxazepin-3-yl)-4H-1,2,4-triazole-3-carboxamide (WO 2014/125444), having a structure as illustrated below, was used as a comparative compound and was examined using a similar protocol as described by WO 2014/125444.

Compound: CN1C(=O)[C@@H](NC(=O)c2n[nH]c(Cc3ccccc3)n2)COc2ccc(C#CC(C)(C)O)cc21 [Compound I-30, (S)-5-benzyl-N-(7-(3-hydroxy-3-methylbut-1-yn-1-yl)-5-methyl-4-oxo-2,3,4,5-tetrahydrobenzo[b][1,4]oxazepin-3-yl)-1H-1,2,4-triazole-3-carboxamide]
- inhibition of TNF-alpha induced hypothermia: greater than 85%

— US11332451B2, “RIP1 inhibitory compounds and methods for making and using the same” (priority 2018, dated 2022)
